Experimental data as given in PubChem BioAssay AID330 (DTP/NCI, 2004).
Several values for one entry are separate records, joined by “and”; a condition that tells them apart may be missing. Identical values can stand only once. Toxic doses and inconclusive results are not listed.

Test system: P388 leukemia ip, CD2F1 mice, survival T/C
Assay: NCI In Vivo Anticancer Drug Screen. Data for tumor model P388 Leukemia (intraperitoneal) in CD2F1 (CDF1) mice
Conditions: endpoint: median survival time, higher = longer survival
Method in brief: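 Mice carrying the transplanted tumor received test compound or vehicle. Survival was recorded in each group, and the value is the treated-group measurement divided by that of the vehicle-treated control group.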

[1] = dose: 100.0 mg/kg/injection, schedule: Q01DX001 (ip), vehicle: saline with Tween-80
[2] = dose: 50.0 mg/kg/injection, schedule: Q01DX005 (ip), vehicle: saline with Tween-80
[3] = dose: 100.0 mg/kg/injection, schedule: Q01DX005 (ip), vehicle: saline with Tween-80
[4] = dose: 100.0 mg/kg/injection, schedule: Q01DX005 (ip), vehicle: distilled water + Tween-80
[5] = dose: 200.0 mg/kg/injection, schedule: Q01DX005 (ip), vehicle: distilled water + Tween-80
[6] = dose: 60.0 mg/kg/injection, schedule: Q01DX005 (ip), vehicle: saline with Tween-80
[7] = dose: 120.0 mg/kg/injection, schedule: Q01DX005 (ip), vehicle: saline with Tween-80
[8] = dose: 240.0 mg/kg/injection, schedule: Q01DX005 (ip), vehicle: saline with Tween-80
[9] = dose: 50.0 mg/kg/injection, schedule: Q01DX009 (ip), vehicle: saline
[10] = dose: 100.0 mg/kg/injection, schedule: Q01DX009 (ip), vehicle: saline
[11] = dose: 50.0 mg/kg/injection, schedule: Q01DX009 (ip), vehicle: saline with Tween-80
[12] = dose: 100.0 mg/kg/injection, schedule: Q01DX009 (ip), vehicle: saline with Tween-80
[13] = dose: 200.0 mg/kg/injection, schedule: Q01DX009 (ip), vehicle: saline with Tween-80
[14] = dose: 400.0 mg/kg/injection, schedule: Q01DX009 (ip), vehicle: saline with Tween-80
[15] = dose: 100.0 mg/kg/injection, schedule: Q04DX003 (ip), vehicle: saline
[16] = dose: 200.0 mg/kg/injection, schedule: Q04DX003 (ip), vehicle: saline
[17] = dose: 200.0 mg/kg/injection, schedule: Q01DX005 (ip), vehicle: saline with Tween-80

O=C1NC(=O)C2(N1)C1CCCCC2C(c2ccccc2)NC1c1ccccc1 (stereo not drawn)
T/C [1]: 100 % of control
T/C (dose: 200.0 mg/kg/injection, schedule: Q01DX001 (ip), vehicle: saline with Tween-80): 98 % of control
T/C (dose: 400.0 mg/kg/injection, schedule: Q01DX001 (ip), vehicle: saline with Tween-80): 96 % of control

S=C1N(c2ccc(Cl)cc2)C2=C(N=Nc3ccccc3)C(=Nc3ccccc3S2)N1c1ccccn1
T/C [2]: 109 % of control
T/C [3]: 108 % of control

[CH3][Sn]([CH3])([S]CCS(=O)(=O)O)[S]CCS(=O)(=O)O
T/C (dose: 15.0 mg/kg/injection, schedule: Q01DX005 (ip), vehicle: saline): 120 % of control
T/C (dose: 30.0 mg/kg/injection, schedule: Q01DX005 (ip), vehicle: saline): 98 % of control
T/C (dose: 60.0 mg/kg/injection, schedule: Q01DX005 (ip), vehicle: saline): 107 % of control
T/C (dose: 120.0 mg/kg/injection, schedule: Q01DX005 (ip), vehicle: saline): 121 % of control

COc1ccc(C(C)c2cc3c(cc2O)OCO3)cc1 (stereo not drawn)
T/C (dose: 50.0 mg/kg/injection, schedule: Q01DX005 (ip), vehicle: distilled water + Tween-80): 105 % of control
T/C [4]: 99 % of control
T/C [5]: 108 % of control

Cc1cc(OP2(=O)Nc3ccccc3-c3ccccc3N2)ccc1Cl
T/C [2]: 98 % of control
T/C [3]: 89 % of control

CCCCC#CC(=O)OCC
T/C [6]: 101 % of control
T/C [7]: 106 % of control
T/C [8]: 113 % of control

NC(=O)CC(NC(c1ccccc1)(c1ccccc1)c1ccccc1)C(=O)ON1C(=O)CCC1=O (stereo not drawn)
T/C (dose: 25.0 mg/kg/injection, schedule: Q01DX001 (ip), vehicle: saline with Tween-80): 104 % of control
T/C (dose: 50.0 mg/kg/injection, schedule: Q01DX001 (ip), vehicle: saline with Tween-80): 100 % of control
T/C [1]: 100 % of control

CCCCCCCCCCCCCCC(Br)C(=O)O (stereo not drawn)
T/C [9]: 101 % of control
T/C [10]: 103 % of control

CCCCOCN(CCCc1ccccc1)COCCCC
T/C (dose: 12.5 mg/kg/injection, schedule: Q01DX009 (ip), vehicle: saline with Tween-80): 89 % of control
T/C (dose: 25.0 mg/kg/injection, schedule: Q01DX009 (ip), vehicle: saline with Tween-80): 102 % of control
T/C [11]: 118 % of control

CC(C)Cc1c[nH]c(=O)[nH]c1=O
T/C [12]: 95 % of control
T/C [13]: 95 % of control
T/C [14]: 91 % of control

Cc1ccc2sc(-c3ccccc3)c(CCl)c(=O)c2c1
T/C (dose: 100.0 mg/kg/injection, schedule: Q04DX002 (ip), vehicle: saline with Tween-80): 102 % of control
T/C (dose: 200.0 mg/kg/injection, schedule: Q04DX002 (ip), vehicle: saline with Tween-80): 108 % of control
T/C (dose: 400.0 mg/kg/injection, schedule: Q04DX002 (ip), vehicle: saline with Tween-80): 108 % of control

C[Si](C)(C)C#CC(C(O)c1ccccc1)N1CCCC1 (stereo not drawn)
T/C [15]: 94 % of control
T/C [16]: 92 % of control
T/C (dose: 400.0 mg/kg/injection, schedule: Q04DX003 (ip), vehicle: saline): 101 % of control

CCN(CC)c1ccc2nc3ccc(N=Nc4c(O)ccc5ccccc45)cc3[n+](-c3ccccc3)c2c1
T/C (dose: 0.75 mg/kg/injection, schedule: Q01DX005 (ip), vehicle: saline with Tween-80): 115 % of control
T/C (dose: 1.5 mg/kg/injection, schedule: Q01DX005 (ip), vehicle: saline with Tween-80): 120 % of control
T/C (dose: 3.0 mg/kg/injection, schedule: Q01DX005 (ip), vehicle: saline with Tween-80): 120 % of control
T/C (dose: 6.0 mg/kg/injection, schedule: Q01DX005 (ip), vehicle: saline with Tween-80): 90 % of control

O=C(Nc1ccccc1)OCc1c(COC(=O)Nc2ccccc2)c(-c2ccc(Cl)c(Cl)c2)n2c1CCC2
T/C (dose: 12.5 mg/kg/injection, schedule: Q01DX005 (ip), vehicle: distilled water + Tween-80): 122 % of control
T/C [4]: 155 % of control
T/C [5]: 160 % of control

COc1ccc(C(=O)Cc2cc3c(cc2Br)OCO3)cc1OC
T/C (dose: 100.0 mg/kg/injection, schedule: Q01DX001 (ip), vehicle: Klucel (hydroxypropylcellulose) (HPC)): 101 % of control
T/C (dose: 200.0 mg/kg/injection, schedule: Q01DX001 (ip), vehicle: Klucel (hydroxypropylcellulose) (HPC)): 105 % of control
T/C (dose: 400.0 mg/kg/injection, schedule: Q01DX001 (ip), vehicle: Klucel (hydroxypropylcellulose) (HPC)): 99 % of control

N#CC1(C#N)C2C=CC(C2)N1OC(=O)c1ccc([N+](=O)[O-])cc1 (stereo not drawn)
T/C [11]: 95 % of control
T/C [12]: 92 % of control
T/C [13]: 95 % of control

O=c1c2cccnc2oc2c(Cl)cc(-c3nn[nH]n3)cc12
T/C (dose: 50.0 mg/kg/injection, schedule: Q01DX005 (ip), vehicle: Klucel (hydroxypropylcellulose) (HPC)): 97 % of control
T/C (dose: 100.0 mg/kg/injection, schedule: Q01DX005 (ip), vehicle: Klucel (hydroxypropylcellulose) (HPC)): 111 % of control
T/C (dose: 200.0 mg/kg/injection, schedule: Q01DX005 (ip), vehicle: Klucel (hydroxypropylcellulose) (HPC)): 97 % of control

CCOC(=O)Cc1csc(=S)n1-c1ccccc1
T/C [2]: 102 % of control
T/C [3]: 102 % of control
T/C [17]: 90 % of control

O=C(NCCN1CCNCC1)c1ccc(Cl)cc1
T/C [6]: 97 % of control
T/C [7]: 92 % of control
T/C [8]: 93 % of control

O=c1cc(CCl)[nH]nc1CCl
T/C (dose: 14.5 mg/kg/injection, schedule: Q04DX003 (ip), vehicle: saline with Tween-80): 160 % of control
T/C (dose: 33.0 mg/kg/injection, schedule: Q04DX003 (ip), vehicle: saline with Tween-80): 158 % of control
T/C (dose: 50.0 mg/kg/injection, schedule: Q04DX003 (ip), vehicle: saline with Tween-80): 173 % of control

CCOC(=O)NC(=Nc1cccc(C(=O)c2ccc3nc(NC(=O)OCC)[nH]c3c2)c1)NC(=O)OCC
T/C (dose: 15.0 mg/kg/injection, schedule: Q01DX005 (ip), vehicle: saline with Tween-80): 89 % of control
T/C (dose: 30.0 mg/kg/injection, schedule: Q01DX005 (ip), vehicle: saline with Tween-80): 94 % of control

COc1cc(CCN)ccc1OCc1ccccc1
T/C (dose: 25.0 mg/kg/injection, schedule: Q01DX009 (ip), vehicle: saline): 107 % of control
T/C [9]: 104 % of control
T/C [10]: 110 % of control

NNC(=O)c1ccccc1Cl
T/C (dose: 6.25 mg/kg/injection, schedule: Q01DX009 (ip), vehicle: Klucel (hydroxypropylcellulose) (HPC)): 97 % of control
T/C (dose: 6.25 mg/kg/injection, schedule: Q01DX009 (ip), vehicle: saline): 100 % of control
T/C (dose: 12.5 mg/kg/injection, schedule: Q01DX009 (ip), vehicle: Klucel (hydroxypropylcellulose) (HPC)): 96 % of control
T/C (dose: 12.5 mg/kg/injection, schedule: Q01DX009 (ip), vehicle: saline): 100 % of control
T/C (dose: 25.0 mg/kg/injection, schedule: Q01DX009 (ip), vehicle: Klucel (hydroxypropylcellulose) (HPC)): 100 % of control

OCc1ccc(Cl)cc1Cl
T/C [11]: 104 % of control
T/C [12]: 95 % of control
T/C [13]: 109 % of control

COc1ccc(C(c2cc3c(cc2O)OCO3)N2CCOCC2)cc1 (stereo not drawn)
T/C [6]: 118 % of control
T/C [7]: 109 % of control and 119 % of control
T/C [8]: 120 % of control

O/N=C1/CCC/C(=N/O)C1
T/C [2]: 100 % of control
T/C [3]: 98 % of control
T/C [17]: 107 % of control

Cc1cnc2ccccc2c1/C=C/c1ccc(N(C)C)cc1
T/C [11]: 124 % of control
T/C [13]: 153 % of control
T/C [14]: 120 % of control

CC(C)C(O)C1CCOS1(=O)=O (stereo not drawn)
T/C [15]: 95 % of control
T/C [16]: 101 % of control
